Data as given in ChEMBL document CHEMBL4418912, “Methods of identifying antagonists of the hTAS2R46 bitter taste receptor” (2014).
Active and inactive are the calls of the source. The rule behind the calls is not given here.

Legend:
Format in all cases: functional, cell-based
[1] = molecular target: T1, Taste receptor type 2 member 43 (Homo sapiens) (UniProt P59537); test: Antagonist activity at recombinant human N-terminal rat ST3 receptor-fused TAS2R43 expressed in HEK293T cells co-expressing Galpha16gust44 assessed as inhibition of aristolochic acid-induced intracellular calcium level at 100 uM by FLIPR assay
T1 sequence (whole entry): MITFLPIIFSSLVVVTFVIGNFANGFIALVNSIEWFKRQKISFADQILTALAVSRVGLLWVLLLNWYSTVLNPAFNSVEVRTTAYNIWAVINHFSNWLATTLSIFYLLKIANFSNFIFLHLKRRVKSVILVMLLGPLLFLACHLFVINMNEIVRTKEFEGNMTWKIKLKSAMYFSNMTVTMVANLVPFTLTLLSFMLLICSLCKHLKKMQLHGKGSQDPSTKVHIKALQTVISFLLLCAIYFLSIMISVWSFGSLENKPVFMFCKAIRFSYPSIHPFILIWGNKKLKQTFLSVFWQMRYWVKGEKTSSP

[2] = molecular target: T2, Taste receptor type 2 member 50 (Homo sapiens) (UniProt P59544); test: Antagonist activity at recombinant human N-terminal rat ST3 receptor-fused TAS2R50 expressed in HEK293T cells co-expressing Galpha16gust44 assessed as inhibition of andrographolide-induced increase in intracellular calcium level at 100 uM by FLIPR assay
T2 sequence (whole entry): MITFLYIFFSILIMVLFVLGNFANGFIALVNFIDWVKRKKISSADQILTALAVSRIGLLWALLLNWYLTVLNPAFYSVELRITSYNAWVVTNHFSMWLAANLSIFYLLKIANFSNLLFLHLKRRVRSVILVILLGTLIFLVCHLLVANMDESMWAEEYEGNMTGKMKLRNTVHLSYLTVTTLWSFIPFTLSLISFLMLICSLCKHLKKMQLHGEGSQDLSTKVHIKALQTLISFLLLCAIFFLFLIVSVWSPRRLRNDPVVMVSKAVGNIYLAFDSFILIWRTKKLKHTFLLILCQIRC

[3] = molecular target: T3, Taste receptor type 2 member 39 (Homo sapiens) (UniProt P59534); test: Antagonist activity at recombinant human N-terminal rat ST3 receptor-fused TAS2R39 expressed in HEK293T cells co-expressing Galpha16gust44 assessed as inhibition of epigallocatechin galiate-induced increase in intracellular calcium level at 100 uM by FLIPR assay
T3 sequence (whole entry): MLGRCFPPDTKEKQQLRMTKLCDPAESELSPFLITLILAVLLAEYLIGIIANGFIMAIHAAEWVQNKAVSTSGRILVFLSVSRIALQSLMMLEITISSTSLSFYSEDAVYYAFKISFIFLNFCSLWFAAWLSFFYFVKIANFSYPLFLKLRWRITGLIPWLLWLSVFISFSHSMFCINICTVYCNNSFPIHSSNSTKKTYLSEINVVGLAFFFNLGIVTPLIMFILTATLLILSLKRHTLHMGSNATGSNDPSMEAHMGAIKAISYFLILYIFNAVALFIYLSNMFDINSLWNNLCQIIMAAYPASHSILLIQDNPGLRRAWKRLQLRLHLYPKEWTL

[4] = molecular target: T4, Taste receptor type 2 member 3 (Homo sapiens) (UniProt Q9NYW6); test: Antagonist activity at recombinant human N-terminal rat ST3 receptor-fused TAS2R3 expressed in HEK293T cells co-expressing Galpha16gust44 assessed as inhibition of chloroquine-induced increase in intracellular calcium level at 100 uM by FLIPR assay
T4 sequence (whole entry): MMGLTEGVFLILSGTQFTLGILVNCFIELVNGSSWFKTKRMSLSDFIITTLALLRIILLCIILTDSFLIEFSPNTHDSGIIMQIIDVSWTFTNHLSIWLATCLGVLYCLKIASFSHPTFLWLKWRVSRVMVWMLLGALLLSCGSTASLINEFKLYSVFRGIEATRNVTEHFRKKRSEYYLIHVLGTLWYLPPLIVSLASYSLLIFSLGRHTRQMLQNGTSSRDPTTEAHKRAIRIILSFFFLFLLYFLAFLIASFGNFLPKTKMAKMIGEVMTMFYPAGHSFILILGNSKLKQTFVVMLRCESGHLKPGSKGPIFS

HEK-293T = test: Effect on intracellular calcium level in mock-transfected HEK293T cells at 100 uM FLIPR assay; conditions: Homo sapiens
[5] = molecular target: Taste receptor type 2 member 40 (Homo sapiens) (UniProt P59535); test: Antagonist activity at recombinant human N-terminal rat ST3 receptor-fused TAS2R40 expressed in HEK293T cells co-expressing Galpha16gust44 assessed as inhibition of cohumulone-induced intracellular calcium level at 100 uM by FLIPR assay
[6] = molecular target: T5, Taste receptor type 2 member 14 (Homo sapiens) (UniProt Q9NYV8); test: Agonist activity at recombinant human N-terminal rat ST3 receptor-fused TAS2R14 expressed in HEK293T cells co-expressing Galpha16gust44 assessed as increase in intracellular calcium level at 100 uM by FLIPR assay
T5 sequence (whole entry): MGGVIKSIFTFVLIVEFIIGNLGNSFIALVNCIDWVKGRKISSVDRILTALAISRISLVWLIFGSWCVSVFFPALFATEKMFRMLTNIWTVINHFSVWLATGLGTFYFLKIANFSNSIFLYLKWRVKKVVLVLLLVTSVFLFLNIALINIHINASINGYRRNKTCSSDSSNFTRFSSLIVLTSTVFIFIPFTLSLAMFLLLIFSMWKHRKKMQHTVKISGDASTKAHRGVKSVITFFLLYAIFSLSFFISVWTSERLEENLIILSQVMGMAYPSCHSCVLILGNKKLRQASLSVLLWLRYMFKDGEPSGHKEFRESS

[7] = molecular target: T6, Taste receptor type 2 member 31 (Homo sapiens) (UniProt P59538); test: Antagonist activity at recombinant human N-terminal rat ST3 receptor-fused TAS2R44 expressed in HEK293T cells co-expressing Galpha16gust44 assessed as inhibition of aristolochic acid-induced intracellular calcium level at 100 uM by FLIPR assay
T6 sequence (whole entry): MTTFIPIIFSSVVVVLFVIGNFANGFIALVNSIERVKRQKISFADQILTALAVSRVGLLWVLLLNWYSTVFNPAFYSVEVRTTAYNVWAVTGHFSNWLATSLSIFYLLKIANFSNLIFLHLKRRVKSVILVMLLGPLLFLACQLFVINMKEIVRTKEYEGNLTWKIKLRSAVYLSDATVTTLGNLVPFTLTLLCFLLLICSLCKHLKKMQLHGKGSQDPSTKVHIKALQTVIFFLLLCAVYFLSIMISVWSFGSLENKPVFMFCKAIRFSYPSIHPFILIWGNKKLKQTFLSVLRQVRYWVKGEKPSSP

Chain of Taste receptor type 2 member 40 (Homo sapiens) (P59535 whole entry, the tested form may be a part): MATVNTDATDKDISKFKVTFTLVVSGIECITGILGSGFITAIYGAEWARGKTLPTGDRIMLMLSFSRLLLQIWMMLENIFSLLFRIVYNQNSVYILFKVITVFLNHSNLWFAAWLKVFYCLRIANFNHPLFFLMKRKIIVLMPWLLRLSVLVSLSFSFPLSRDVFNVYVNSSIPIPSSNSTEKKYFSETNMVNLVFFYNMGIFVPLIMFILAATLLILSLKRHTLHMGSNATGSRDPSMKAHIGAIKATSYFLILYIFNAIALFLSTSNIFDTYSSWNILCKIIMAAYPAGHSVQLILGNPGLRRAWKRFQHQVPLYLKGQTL

| Compound | inhibition [1] | inhibition [2] | inhibition [3] | inhibition [4] | Activity (HEK-293T) | inhibition [5] | Activity [6] | inhibition [7] |
| --- | --- | --- | --- | --- | --- | --- | --- | --- |
| C/C1=C\C[C@H](O)[C@@H](C)C[C@H]2OC(=O)[C@@H](C)[C@@H]2CC1 | Active | inactive | inactive | inactive | inactive | Active | Active | Active |
| C/C1=C\C[C@H](O)/C(C)=C/[C@H]2OC(=O)[C@@H](C)[C@@H]2CC1 | Active | inactive | inactive | inactive | inactive | Active | Active | inactive |
